Series [1] has as its target T1, T7 DNA primase (Escherichia phage T7, UniProt P03692).
T1 construct: T7 primase domain (residue: 1-271) was over-produced and purified using metal free buffers; made in house; host or cells: E. coli Bl21(DE3) containing pETg4P
As to the kind of experiment: Fragment based screening by STD NMR spectroscopy. The series is classed as binding, bacteriophage T7. The note with it: ranked by total change in intensity and number of affected peaks; Maybridge Ro3 library. As to the method: NMR experiments—Fragment Based Screening: T7 primase was screened against the Maybridge Ro3 Diversity Fragment Library containing 1000 compounds using STD spectroscopy. Samples for 1D ligand-observed NMR studies contained […] T7 primase in 50 mM phosphate buffer in D2O and 10 compounds, resulting in a total of 100 samples. NMR spectra were recorded on a Bruker Avance 500 MHz equipped with a TXO cryoprobe with Z gradient and a NMR-CASE sample changer at 298 K. Ligand binding was probed using a saturation transfer difference pulse program. Saturation was achieved using on-resonance irradiation at 0 ppm with a train of Wurst pulses for a total saturation time of 1.5 s. Off resonance irradiation was centered at 40 ppm. Spectra were acquired with a sweep width of 8012.8 Hz, 8192 data points and 224 scans. Active compounds were identified by comparing the STD spectra with the corresponding reference spectra using the MestreNova software. Any compound with reduced peak intensities was considered a hit and ranked according to the percentage of intensity decrease and the number of affected peaks per compound.
Using the Maybridge Ro3 fragment library containing 1000 fragments, 100 NMR samples were prepared, each containing a mixture of 10 fragments and 50 μM T7 primase.
The 10 fragments were chosen to show minimal overlap of their 1H chemical shift to allow easy identification of the shifts. […]

The target in series [2] is T2, T7 DNA primase (primase domain of bacteriophage T7 gene 4 protein, residues 1-271) (Escherichia phage T7, UniProt P03692).
T2 construct: T7 primase domain (residue: 1-271) was over-produced and purified; made in house; host or cells: E. coli BL21(DE3), plasmid pETg4P
As to the kind of experiment: Oligoribonucleotide synthesis assay: template-directed diribonucleotide (pppAC) synthesis catalyzed by the T7 DNA primase domain (FIG. 5). The series is classed as biochemical. The note with it: T7 gene 4 primase domain (residues 1-271, expressed in E. coli BL21(DE3)); DNA template with recognition site 5'-GTC-3' (5'-GGGTCA10-3'), ATP, [α-32P]-CTP, 10 mM MnCl2, pH 7.5; gel autoradiography of pppAC; four parameter logistic fit; parenthesised figure not explained. An excerpt:
FIGS. 5A-C present a scheme summarizing the assay in which the DNA template containing the primase recognition site 5′-GTCA10-3′ enables the synthesis of only diribonucleotides pppAC (FIG. 5A), and gel bands and quantification of gel bands representing the reaction products (5′-pppAC-3′) (FIG. 5B and FIG. 5C, respectively).
Protein expression and purification: Proteins and Reagents. All chemical reagents were of molecular biology grade (Sigma); ATP and CTP (Roche Molecular Biochemicals). dNTPs and ddNTPs were purchased from USB Corp. Premade gels (10-20% linear gradients) used for SDS-PAGE and Precision Plus Protein prestained standards were purchased from BioRad (Hercules, Calif.). T7 primase domain (residue: 1-271) was over-produced and purified using metal free buffers as previously described in Mol Cell 11, 1349-60 (2003). T7 gp5 and E. Coli trx were overproduced and purified as described in J. Biol. Chem. 262, 16224-32 (1987). Gp4 was overproduced and purified as described in J. Biol. Chem. 272, 18425-33 (1997). M13 ssDNA was prepared as described in J. Biol. Chem. 261, 15208-16 (1986). [α-^32P]-CTP (800 Ci/mmol) was purchased from Perkin Elmer.
Oligoribonucleotide Synthesis Assay: Oligoribonucleotides were synthesized by DNA primase, product was measured as described in J Biol Chem 272, 5943-51 (1997) and in J Biol Chem 266, 23240-50 (1991), in reactions containing various concentrations (1.1, 3.3, and 10 μM) of gene 4 primase domain. […]
(§1) Small molecules that inhibit primase activity: to catalyze the synthesis of short RNA primers, T7 primase requires DNA with a primase recognition site, ATP and CTP, and a buffer containing divalent metal ions. […] The radioactively labeled oligoribonucleotides were separated on a denaturing polyacrylamide gel, and radioactivity was measured on an autoradiogram. The amounts of RNA-primed DNA syntheses were determined by measuring the incorporation of dTMP (see Methods). […]

Series [3] deals with T1, T7 DNA primase. As to the kind of experiment: [1H,15N]-TROSY HSQC titration of labeled primase with compounds. The series is classed as binding, bacteriophage T7. The note with it: compared to free T7 primase. As to the method:
[^1H,^15N]-TROSY HSQC titration spectra of 15N,D T7 DNA primase with selected fragment molecules and compounds 1, 12, 13, 15, 17, ATP, and DNA were recorded at 25° C. on a Bruker DMX 800 MHz spectrometer equipped with TXI cryoprobes with Z gradient. Data were processed and analyzed using NMRPipe (Journal of Biomolecular NMR 6, 277-293 (1995)) and NMRView (Journal of Biomolecular Nmr 4, 603-614 (1994)).
Structural analysis of inhibitor-primase interactions: To characterize the binding of the compounds identified using FBVS, the [^15N, ^1H]-TROSY-HSQC spectra of ^15N- and D-labeled T7 primase in the presence of the selected lead compounds (FIGS. 7A-B) were measured. […] Relative to the initial scaffold alone, those shifts were more pronounced, which indicates stronger binding interactions. In addition, chemical shift perturbations upon the addition of DNA and ATP/CTP to the T7 primase domain confirmed that all three compounds bind to the active site. […] Compounds 12 and 15, whose polar dissolution values were the lowest from among the five inhibitors, were not able to achieve the concentrations needed for the protein-NMR experiments.

Series [4] addresses T3, T7 primase (gp4) with gp5/trx (Escherichia phage T7, UniProt P03692).
T3 construct: the helicase-primase (gene product 4, gp4, full-length) was run; made in house
Put plainly: Primase dependent DNA synthesis (gp4 primers extended by gp5/trx on M13 ssDNA). The class given is biochemical, bacteriophage T7. The note with it: 350 μM of each small molecule, FIG. 4B. As to the method:
Primase dependent DNA synthesis: RNA primers made by gp4A were extended by gp5/trx. The reaction mixture contained 10 nM M13 ssDNA, 0.3 mM dNTPs, 0.1 μCi [α-^32P] dCTP, 20 nM gp5/trx, 200 nM monomeric gp4A, and 350 μM of each compound. The reaction was incubated for 45 min at 37° C. Reaction was terminated and amount of DNA synthesis was determined as described in DNA polymerase assay.
Small molecules that inhibit the concerted activity of primase and DNA polymerase: To evaluate the ability of the small molecule candidates to inhibit the primase-dependent replication of the lagging strand of bacteriophage DNA, an overall assay that involved the concerted activity of DNA polymerase (gene product 5 and E. coli thioredoxin, gp5/trx) and the helicase-primase (gene product 4, gp4, full-length) was run. In bacteriophage T7, lagging strand DNA synthesis involves interactions between gp5/trx and gp4. Full-length gp4 is required for the synthesis of oligoribonucleotides to initiate the synthesis of Okazaki fragments.
To examine the effect of 350 μM of each small molecule on the synthesis of primers and their transfer to gp5/trx, M13 ssDNA for the synthesis of oligoribonucleotides by the primase and their extension by gp5/trx was used (FIG. 4b, inset). To initiate DNA synthesis, the primase must first synthesize tetraribonucleotides on the DNA and then transfer them to gp5/trx. In addition to the four dNTPs, ATP and CTP were also provided, and the primers that were synthesized included pppACCC, pppACAC, and pppACCA.
The Table in FIG. 6A presents the inhibitory effect of various small molecules on primase-dependent DNA synthesis mediated by gp5/trx and gene 4 helicase (gp4A). The standard reaction contained the ssM13 DNA template (10 nM), 0.3 mM dATP, dGTP, dCTP and [α-^32P] dTTP (0.1 mCi), 10 nM gp5/trx, 200 nM monomeric concentrations of […] and 250 μM of small molecule inhibitors. After incubation for 30 min at 37° C., the level of […] was determined based on the amount of [α-^32P] dTTP incorporated into DNA.

Series [5] can be described thus: Polar dissolution of inhibitors for protein-NMR experiments. The settings on record: among the five inhibitors. The series is classed as physicochemical.
Series [6] concerns the target T4, T7 primase domain (Escherichia phage T7, UniProt P03692).
T4 construct: T7 primase domain (residue: 1-271) was over-produced and purified using metal free buffers; made in house; host or cells: E. coli Bl21(DE3) containing pETg4P
As to the kind of experiment: Oligoribonucleotide (pppAC diribonucleotide) synthesis assay. The series is classed as biochemical, bacteriophage T7. The settings on record: pppAC synthesis by T7 primase domain; four parameter logistic fit. As for the experimental part: Oligoribonucleotide Synthesis Assay: Oligoribonucleotides were synthesized by DNA primase, product was measured as described in J Biol Chem 272, 5943-51 (1997) and in J Biol Chem 266, 23240-50 (1991), in reactions containing various concentrations (1.1, 3.3, and 10 μM) of gene 4 primase domain. Standard 10 μL reaction contained 5 μM of DNA template (5′-GGGTCA10-3′), 200 μM ATP, 200 μM [α-^32P]-CTP, and primase domain in a buffer containing 40 mM Tris-HCl (pH 7.5), 10 mM MnCl2, 10 mM DTT, and 50 mM potassium glutamate. […]
as §1
The reaction conditions involve incubating the primase domain with an oligonucleotide containing a primase recognition sequence. […] After incubation, the radioactive products were analyzed by electrophoresis through 25% polyacrylamide gel containing 3 M urea and visualized using autoradiography.

Results on 10 compounds are retold here after US11339189B2, “DNA primase and gyrase inhibitors” (B. G. NEGEV TECHNOLOGIES AND APPLICATIONS LTD., AT …, priority 2016, dated 2022).

T2 sequence (P03692 1-271): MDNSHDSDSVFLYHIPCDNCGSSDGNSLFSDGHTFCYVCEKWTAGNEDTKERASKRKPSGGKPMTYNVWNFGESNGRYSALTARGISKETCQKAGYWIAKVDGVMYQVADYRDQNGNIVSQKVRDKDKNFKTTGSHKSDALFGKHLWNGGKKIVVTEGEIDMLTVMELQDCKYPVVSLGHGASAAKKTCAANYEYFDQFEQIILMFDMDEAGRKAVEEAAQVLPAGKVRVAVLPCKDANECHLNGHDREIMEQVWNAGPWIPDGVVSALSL
T1 sequence (P03692 1-271): as above
T3 sequence (P03692 whole entry): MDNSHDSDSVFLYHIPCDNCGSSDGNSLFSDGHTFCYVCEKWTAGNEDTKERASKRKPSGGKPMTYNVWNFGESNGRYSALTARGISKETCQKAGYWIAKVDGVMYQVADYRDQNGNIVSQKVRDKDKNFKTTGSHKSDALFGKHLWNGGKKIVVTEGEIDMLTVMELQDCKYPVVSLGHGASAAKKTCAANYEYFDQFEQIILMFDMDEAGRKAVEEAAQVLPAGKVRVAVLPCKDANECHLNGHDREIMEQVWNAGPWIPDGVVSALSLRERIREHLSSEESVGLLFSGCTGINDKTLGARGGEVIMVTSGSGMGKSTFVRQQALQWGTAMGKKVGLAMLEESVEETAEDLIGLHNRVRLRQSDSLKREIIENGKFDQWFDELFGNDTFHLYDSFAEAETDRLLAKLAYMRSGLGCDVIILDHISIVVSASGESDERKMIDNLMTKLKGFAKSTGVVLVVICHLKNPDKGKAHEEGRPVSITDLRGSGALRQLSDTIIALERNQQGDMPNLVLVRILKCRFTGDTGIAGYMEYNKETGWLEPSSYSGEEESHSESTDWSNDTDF
T4 sequence (P03692 1-271): as the sequence (P03692 1-271) above

As to `NC(=S)C1=Cc2ccccc2OC1` [2H-chromene-3-carbothioamide], the “binding to T7 primase by STD spectroscopy (decrease in NMR peak intensities)” value in series [1] was “strongest binding”.
For orientation: IC50 means the midpoint of a concentration-inhibition curve. Turning to `O=C1Cc2c([nH]c3ccc([N+](=O)[O-])cc23)-c2ccccc2N1` [Compound 12, 9-Nitro-7,12-dihydroindolo-[3,2-d][1]benzazepin-6(5)-one], in series [2], the IC50 amounted to 109 µM.
Same read-out and setting: to `O=C(Nc1ccc2c(c1)OCO2)c1cc2cccc([N+](=O)[O-])c2[nH]1` [Compound 15, N-(1,3-benzodioxol-5-yl)-7-nitro-1H-indole-2-carboxamide] belongs 56.7 µM.
In the case of `O=C(O)c1cc2cccc([N+](=O)[O-])c2[nH]1` [Compound 17, 7-nitro-1H-indole-2-carboxylic acid], the concentration for half-maximal inhibition (IC50) in series [2] was 314 µM.
`O=C(O)/C=C/C1=Cc2cc(Cl)ccc2OC1` [compound 1, (2E)-3-(6-chloro-2H-chromen-3-yl)acrylic acid]: the “chemical shift perturbations of T7 primase upon compound addition” value (from here on “chemical shift perturbations”) in series [3] is reported as “significant chemical shift perturbations”. For the same compound, the “decrease of primase dependent DNA synthesis” value in series [4] is “decreases by up to four-fold”.
Consider `O=C1Cc2c([nH]c3ccc([N+](=O)[O-])cc23)-c2ccccc2N1` [compound 12, 9-Nitro-7,12-dihydroindolo-[3,2-d][1]benzazepin-6(5)-one], for which the polar dissolution values result in series [5] is listed as “lowest”. Further, the Hill coefficient entry in series [6] is “highest value”. The “decrease of primase dependent DNA synthesis” value in series [4] is “decreases by up to four-fold”.
For `CCOC(=O)c1[nH]c2ccc([N+](=O)[O-])cc2c1CCC(=O)O` [compound 13, 3-[2-(ethoxycarbonyl)-5-nitro-1H-indol-3-yl]propanoic acid], the “chemical shift perturbations” value in series [3] is reported as “significant chemical shift perturbations”. The “decrease of primase dependent DNA synthesis” value in series [4] is given as “decreases by up to four-fold”.
On to `O=C(Nc1ccc2c(c1)OCO2)c1cc2cccc([N+](=O)[O-])c2[nH]1` [compound 15, N-(1,3-benzodioxol-5-yl)-7-nitro-1H-indole-2-carboxamide], for which, in series [5], the polar dissolution values result was “lowest”. Besides, the “decrease of primase dependent DNA synthesis” value in series [4] was “decreases by up to four-fold”.
With `O=C(O)c1cc2cccc([N+](=O)[O-])c2[nH]1` [compound 17, 7-nitro-1H-indole-2-carboxylic acid], in series [3], the “chemical shift perturbations” value is “significant chemical shift perturbations”. Besides, the “decrease of primase dependent DNA synthesis” value in series [4] is reported as “decreases by up to four-fold”.
Turning to `c1ccc2[nH]ccc2c1` [indole], in series [1], the “binding to T7 primase by STD spectroscopy (decrease in NMR peak intensities)” value is on record as “strongest binding”.
